ChEMBL document CHEMBL3414550 (J Med Chem, 2015)
pKd, pKi: −log10 of the molar value.

How the values were obtained:
Vasopressin V1a receptor [1] = molecular target: T1, Vasopressin V1a receptor (Homo sapiens, UniProt P37288); assay: Binding affinity to V1aR (unknown origin) expressed in HEK293 cells by TR-FRET assay; type: cell-based
[2] = Retention time of the compound by RP-HPLC analysis; type: physicochemical
Vasopressin V2 receptor [3] = molecular target: T2, Vasopressin V2 receptor (Homo sapiens, UniProt P30518); assay: Binding affinity to V2R (unknown origin) expressed in HEK293 cells by TR-FRET assay; type: cell-based
T2 sequence (P30518 whole entry): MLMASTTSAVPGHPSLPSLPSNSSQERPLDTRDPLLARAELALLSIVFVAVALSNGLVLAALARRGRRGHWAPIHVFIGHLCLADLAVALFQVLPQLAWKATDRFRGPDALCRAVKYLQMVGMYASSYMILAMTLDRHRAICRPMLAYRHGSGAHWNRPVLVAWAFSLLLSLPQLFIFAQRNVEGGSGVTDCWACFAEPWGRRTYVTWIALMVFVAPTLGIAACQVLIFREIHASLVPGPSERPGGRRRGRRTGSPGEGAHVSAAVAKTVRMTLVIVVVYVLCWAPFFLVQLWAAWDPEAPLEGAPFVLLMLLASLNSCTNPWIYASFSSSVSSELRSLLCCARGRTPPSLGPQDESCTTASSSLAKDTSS

Oxytocin receptor [4] = molecular target: T3, Oxytocin receptor (Homo sapiens, UniProt P30559); assay: Binding affinity to SNAP-tagged oxytocin receptor (unknown origin) expressed in HEK293 cells by TR-FRET assay; type: cell-based
T3 sequence (P30559 whole entry): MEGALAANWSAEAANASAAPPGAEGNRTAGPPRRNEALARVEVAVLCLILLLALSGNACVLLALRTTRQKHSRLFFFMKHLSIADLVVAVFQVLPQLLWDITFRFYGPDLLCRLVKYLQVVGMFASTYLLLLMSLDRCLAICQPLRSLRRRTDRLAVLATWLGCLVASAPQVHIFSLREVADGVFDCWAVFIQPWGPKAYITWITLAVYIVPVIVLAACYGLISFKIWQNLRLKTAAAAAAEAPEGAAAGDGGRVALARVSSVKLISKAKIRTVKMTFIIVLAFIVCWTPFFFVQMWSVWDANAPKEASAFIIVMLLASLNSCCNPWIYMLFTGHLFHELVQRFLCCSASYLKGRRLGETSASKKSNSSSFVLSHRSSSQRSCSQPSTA

Vasopressin V1b receptor = molecular target: T4, Vasopressin V1b receptor (Homo sapiens, UniProt P47901); assay: Binding affinity to V1bR (unknown origin) expressed in HEK293 cells by TR-FRET assay; type: cell-based
T4 sequence (P47901 whole entry): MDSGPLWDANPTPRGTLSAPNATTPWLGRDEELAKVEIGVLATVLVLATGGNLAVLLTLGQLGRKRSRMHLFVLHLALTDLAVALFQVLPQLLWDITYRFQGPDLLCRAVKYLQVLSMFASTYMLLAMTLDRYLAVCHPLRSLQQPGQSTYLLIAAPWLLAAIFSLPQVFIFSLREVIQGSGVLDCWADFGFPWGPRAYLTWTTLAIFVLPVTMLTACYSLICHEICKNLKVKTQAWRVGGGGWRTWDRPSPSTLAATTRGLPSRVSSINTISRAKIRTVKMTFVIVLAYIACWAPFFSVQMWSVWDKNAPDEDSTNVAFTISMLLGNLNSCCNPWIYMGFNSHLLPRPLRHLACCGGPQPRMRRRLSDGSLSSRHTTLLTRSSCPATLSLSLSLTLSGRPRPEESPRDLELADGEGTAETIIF

Oxytocin receptor [5] = molecular target: T3, Oxytocin receptor; assay: Binding affinity to SNAP-tagged oxytocin receptor (unknown origin) expressed in HEK293 cells assessed as association constant after 5 to 120 mins by TR-FRET assay; type: cell-based
Oxytocin receptor [6] = molecular target: T3, Oxytocin receptor; assay: Binding affinity to SNAP-tagged oxytocin receptor (unknown origin) expressed in HEK293 cells assessed as dissociation constant after 5 to 120 mins by TR-FRET assay; type: cell-based
Oxytocin receptor [7] = molecular target: T3, Oxytocin receptor; assay: Competitive binding to SNAP-tagged oxytocin receptor (unknown origin) expressed in HEK293 cells incubated for 1 hr at RT followed by 4 hrs at 4 degC by TR-FRET assay in presence of 5-(3-(22-(3-carboxy-4-(3-oxo-3H-xanthen-9-yl)phenyl)-15,22-dioxo-2,5,8,11-tetraoxa-14,21-diazadocosyl)-5-(3-(2-chloro-4-fluorophenoxy)azetidin-1-yl)-4H-1,2,4-triazol-4-yl)-2-methoxypyridinium 2,2,2-trifluoroacetate; type: cell-based
Vasopressin V1a receptor [8] = molecular target: T1, Vasopressin V1a receptor; assay: Binding affinity to V1aR (unknown origin)
Oxytocin receptor [9] = molecular target: T3, Oxytocin receptor; assay: Competitive binding to SNAP-tagged oxytocin receptor (unknown origin) expressed in HEK293 cells incubated for 1 hr at RT followed by 4 hrs at 4 degC by TR-FRET assay in presence of 2-(5-(3-(1-(5-(3-(2-chloro-4-fluorophenoxy)azetidin-1-yl)-4-(6-methoxypyridinium-3-yl)-4H-1,2,4-triazol-3-yl)-15-oxo-2,5,8,11-tetraoxa-14-azaoctadecan-18-yl)-1-ethyl-3-methyl-5-sulfoindolin-2-ylidene)penta-1,3-dienyl)-1 …; type: cell-based
Vasopressin V2 receptor [10] = molecular target: T2, Vasopressin V2 receptor; assay: Binding affinity to V2R (unknown origin)
Oxytocin receptor [11] = molecular target: T3, Oxytocin receptor; assay: Binding affinity to OTR (unknown origin)
Homo sapiens = species on record: Homo sapiens; assay: Selectivity ratio of Kd for V1aR (unknown origin) to Kd for SNAP-tagged oxytocin receptor (unknown origin)

T1 sequence (P37288 whole entry): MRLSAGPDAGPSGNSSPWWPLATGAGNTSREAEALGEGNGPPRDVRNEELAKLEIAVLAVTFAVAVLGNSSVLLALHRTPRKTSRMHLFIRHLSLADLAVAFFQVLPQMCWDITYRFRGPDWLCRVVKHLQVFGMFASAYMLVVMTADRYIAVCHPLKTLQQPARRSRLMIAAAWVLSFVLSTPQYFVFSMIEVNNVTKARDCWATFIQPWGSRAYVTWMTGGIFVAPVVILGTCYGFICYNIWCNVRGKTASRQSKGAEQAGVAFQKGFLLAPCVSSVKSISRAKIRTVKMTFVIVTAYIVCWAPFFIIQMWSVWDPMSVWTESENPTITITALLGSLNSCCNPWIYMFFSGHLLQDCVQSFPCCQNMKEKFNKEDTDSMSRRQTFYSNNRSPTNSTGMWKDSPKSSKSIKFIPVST

| SMILES | pKd (Vasopressin V1a receptor [1]) | Retention_time [2] | pKd (Vasopressin V2 receptor [3]) | pKd (Oxytocin receptor [4]) | pKd (Vasopressin V1b receptor) | kon (Oxytocin receptor [5]) | koff (Oxytocin receptor [6]) | pKi (Oxytocin receptor [7]) | pKi (Vasopressin V1a receptor [8]) | pKi (Oxytocin receptor [9]) | pKi (Vasopressin V2 receptor [10]) | pKi (Oxytocin receptor [11]) | Ratio (Homo sapiens) |
| --- | --- | --- | --- | --- | --- | --- | --- | --- | --- | --- | --- | --- | --- |
| COc1ccc(-n2c(COCCOCCOCCOCCOCCOCCOCCOCCNC(=O)CCCCCNC(=O)c3ccc(-c4c5ccc(=O)cc-5oc5cc(O)ccc45)c(C(=O)O)c3)nnc2N2CC(Oc3ccc(F)cc3Cl)C2)cn1.O=C(O)C(F)(F)F | < 6.00 | 4.39 min | < 6.00 | 8.69 | < 6.00 | – | – | – | – | – | – | – | – |
| COc1ccc(-n2c(COCCOCCOCCOCCNC(=O)CCCCCNC(=O)c3ccc(-c4c5ccc(=O)cc-5oc5cc(O)ccc45)c(C(=O)O)c3)nnc2N2CC(Oc3ccc(F)cc3Cl)C2)cn1.O=C(O)C(F)(F)F | < 6.00 | 4.38 min | < 6.00 | 8.80 | < 6.00 | 3.57 ×10⁶ /M/min | 18.9 ×10⁻³ /min | – | – | – | – | – | – |
| CCN1\C(=C/C=C/C=C/C2=[N+](CC)c3cc(S(=O)(=O)[O-])ccc3C2(C)C)C(C)(CCCC(=O)NCCOCCOCCOCCOCc2nnc(N3CC(Oc4ccc(F)cc4Cl)C3)n2-c2ccc(OC)nc2)c2cc(S(=O)(=O)O)ccc21.O=C(O)C(F)(F)F (stereo not drawn) | < 6.00 | 3.94 min | 6.29 | 8.80 | < 6.00 | 4.03 ×10⁶ /M/min | 10.9 ×10⁻³ /min | – | – | – | – | – | – |
| Cc1ccn(Cc2ccc(C(=O)N3Cc4cnn(C)c4Nc4ccccc43)cc2C)n1 | – | – | – | – | – | – | – | 8.21 | 7.74 | 8.18 | 6.04 | 7.56 | – |
| CCN1\C(=C/C=C/C=C/C2=[N+](CC)c3cc(S(=O)(=O)[O-])ccc3C2(C)C)C(C)(CCCC(=O)NCCNC(=O)CCc2ccc(S(=O)(=O)N(CC(=O)N/N=C3\C(=O)Nc4ccccc43)c3ccc(Cl)cc3)cc2)c2cc(S(=O)(=O)O)ccc21 (stereo not drawn) | 7.71 | 3.96 min | 7.52 | 8.86 | < 6.00 | – | – | – | – | – | – | – | 14 |
| O=C(CCCCCNC(=O)c1ccc(-c2c3ccc(=O)cc-3oc3cc(O)ccc23)c(C(=O)O)c1)NCCNC(=O)CCc1ccc(S(=O)(=O)N(CC(=O)N/N=C2\C(=O)Nc3ccccc32)c2ccc(Cl)cc2)cc1 | 7.21 | 4.68 min | 6.87 | 8.76 | < 6.00 | – | – | – | – | – | – | – | 35 |
| CCN1\C(=C/C=C/C=C/C2=[N+](CC)c3cc(S(=O)(=O)[O-])ccc3C2(C)C)C(C)(CCCC(=O)ON2C(=O)CCC2=O)c2cc(S(=O)(=O)O)ccc21 (stereo not drawn) | – | 3.17 min | – | – | – | – | – | – | – | – | – | – | – |
| O=C(CCCCCNC(=O)c1ccc2c(c1)C(=O)OC21c2ccc(O)cc2Oc2cc(O)ccc21)ON1C(=O)CCC1=O | – | 4 min | – | – | – | – | – | – | – | – | – | – | – |
| CCN1\C(=C/C=C/C=C/C2=[N+](CC)c3cc(S(=O)(=O)[O-])ccc3C2(C)C)C(C)(CCCC(=O)NCCOCCOCCOCCOCCOCCOCCOCCOCc2nnc(N3CC(Oc4ccc(F)cc4Cl)C3)n2-c2ccc(OC)nc2)c2cc(S(=O)(=O)O)ccc21.O=C(O)C(F)(F)F (stereo not drawn) | < 6.00 | 3.97 min | 6.45 | 8.73 | < 6.00 | – | – | – | – | – | – | – | – |
